Activity calls are given as the source filed them. No cut-off for these calls is given here.
Columns and labels:
[1] = target: Histone deacetylase 3/Nuclear receptor corepressor 2 (HDAC3/NCoR2) (Homo sapiens, UniProt O15379); test: Inhibition of C-terminal His-tagged human HDAC3 (1 to 428 residues)/N-terminal GST tagged human NCOR2 (395 to 489) expressed in baculovirus infected sf9 insect cells pretreated with compound followed by Fluor de Lys deacetylase substrate addition by fluorescence method
Histone deacetylase 3/Nuclear receptor corepressor 2 (HDAC3/NCoR2), sequence (O15379 whole entry, the tested form may be a part): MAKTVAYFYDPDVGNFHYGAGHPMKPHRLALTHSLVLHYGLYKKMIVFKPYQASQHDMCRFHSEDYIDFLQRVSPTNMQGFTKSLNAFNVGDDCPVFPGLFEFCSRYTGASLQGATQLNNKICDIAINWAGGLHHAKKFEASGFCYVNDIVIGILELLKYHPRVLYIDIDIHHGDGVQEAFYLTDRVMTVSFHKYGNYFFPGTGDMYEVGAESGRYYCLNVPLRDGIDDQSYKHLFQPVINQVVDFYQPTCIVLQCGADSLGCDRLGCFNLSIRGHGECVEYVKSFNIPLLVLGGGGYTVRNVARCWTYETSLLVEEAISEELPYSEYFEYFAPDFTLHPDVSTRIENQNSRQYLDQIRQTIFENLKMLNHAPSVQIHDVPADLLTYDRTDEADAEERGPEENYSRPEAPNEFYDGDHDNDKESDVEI
Histone deacetylase 3/Nuclear receptor corepressor 2 (HDAC3/NCoR2), sequence (Q9Y618 whole entry, further chain, the tested form may be a part): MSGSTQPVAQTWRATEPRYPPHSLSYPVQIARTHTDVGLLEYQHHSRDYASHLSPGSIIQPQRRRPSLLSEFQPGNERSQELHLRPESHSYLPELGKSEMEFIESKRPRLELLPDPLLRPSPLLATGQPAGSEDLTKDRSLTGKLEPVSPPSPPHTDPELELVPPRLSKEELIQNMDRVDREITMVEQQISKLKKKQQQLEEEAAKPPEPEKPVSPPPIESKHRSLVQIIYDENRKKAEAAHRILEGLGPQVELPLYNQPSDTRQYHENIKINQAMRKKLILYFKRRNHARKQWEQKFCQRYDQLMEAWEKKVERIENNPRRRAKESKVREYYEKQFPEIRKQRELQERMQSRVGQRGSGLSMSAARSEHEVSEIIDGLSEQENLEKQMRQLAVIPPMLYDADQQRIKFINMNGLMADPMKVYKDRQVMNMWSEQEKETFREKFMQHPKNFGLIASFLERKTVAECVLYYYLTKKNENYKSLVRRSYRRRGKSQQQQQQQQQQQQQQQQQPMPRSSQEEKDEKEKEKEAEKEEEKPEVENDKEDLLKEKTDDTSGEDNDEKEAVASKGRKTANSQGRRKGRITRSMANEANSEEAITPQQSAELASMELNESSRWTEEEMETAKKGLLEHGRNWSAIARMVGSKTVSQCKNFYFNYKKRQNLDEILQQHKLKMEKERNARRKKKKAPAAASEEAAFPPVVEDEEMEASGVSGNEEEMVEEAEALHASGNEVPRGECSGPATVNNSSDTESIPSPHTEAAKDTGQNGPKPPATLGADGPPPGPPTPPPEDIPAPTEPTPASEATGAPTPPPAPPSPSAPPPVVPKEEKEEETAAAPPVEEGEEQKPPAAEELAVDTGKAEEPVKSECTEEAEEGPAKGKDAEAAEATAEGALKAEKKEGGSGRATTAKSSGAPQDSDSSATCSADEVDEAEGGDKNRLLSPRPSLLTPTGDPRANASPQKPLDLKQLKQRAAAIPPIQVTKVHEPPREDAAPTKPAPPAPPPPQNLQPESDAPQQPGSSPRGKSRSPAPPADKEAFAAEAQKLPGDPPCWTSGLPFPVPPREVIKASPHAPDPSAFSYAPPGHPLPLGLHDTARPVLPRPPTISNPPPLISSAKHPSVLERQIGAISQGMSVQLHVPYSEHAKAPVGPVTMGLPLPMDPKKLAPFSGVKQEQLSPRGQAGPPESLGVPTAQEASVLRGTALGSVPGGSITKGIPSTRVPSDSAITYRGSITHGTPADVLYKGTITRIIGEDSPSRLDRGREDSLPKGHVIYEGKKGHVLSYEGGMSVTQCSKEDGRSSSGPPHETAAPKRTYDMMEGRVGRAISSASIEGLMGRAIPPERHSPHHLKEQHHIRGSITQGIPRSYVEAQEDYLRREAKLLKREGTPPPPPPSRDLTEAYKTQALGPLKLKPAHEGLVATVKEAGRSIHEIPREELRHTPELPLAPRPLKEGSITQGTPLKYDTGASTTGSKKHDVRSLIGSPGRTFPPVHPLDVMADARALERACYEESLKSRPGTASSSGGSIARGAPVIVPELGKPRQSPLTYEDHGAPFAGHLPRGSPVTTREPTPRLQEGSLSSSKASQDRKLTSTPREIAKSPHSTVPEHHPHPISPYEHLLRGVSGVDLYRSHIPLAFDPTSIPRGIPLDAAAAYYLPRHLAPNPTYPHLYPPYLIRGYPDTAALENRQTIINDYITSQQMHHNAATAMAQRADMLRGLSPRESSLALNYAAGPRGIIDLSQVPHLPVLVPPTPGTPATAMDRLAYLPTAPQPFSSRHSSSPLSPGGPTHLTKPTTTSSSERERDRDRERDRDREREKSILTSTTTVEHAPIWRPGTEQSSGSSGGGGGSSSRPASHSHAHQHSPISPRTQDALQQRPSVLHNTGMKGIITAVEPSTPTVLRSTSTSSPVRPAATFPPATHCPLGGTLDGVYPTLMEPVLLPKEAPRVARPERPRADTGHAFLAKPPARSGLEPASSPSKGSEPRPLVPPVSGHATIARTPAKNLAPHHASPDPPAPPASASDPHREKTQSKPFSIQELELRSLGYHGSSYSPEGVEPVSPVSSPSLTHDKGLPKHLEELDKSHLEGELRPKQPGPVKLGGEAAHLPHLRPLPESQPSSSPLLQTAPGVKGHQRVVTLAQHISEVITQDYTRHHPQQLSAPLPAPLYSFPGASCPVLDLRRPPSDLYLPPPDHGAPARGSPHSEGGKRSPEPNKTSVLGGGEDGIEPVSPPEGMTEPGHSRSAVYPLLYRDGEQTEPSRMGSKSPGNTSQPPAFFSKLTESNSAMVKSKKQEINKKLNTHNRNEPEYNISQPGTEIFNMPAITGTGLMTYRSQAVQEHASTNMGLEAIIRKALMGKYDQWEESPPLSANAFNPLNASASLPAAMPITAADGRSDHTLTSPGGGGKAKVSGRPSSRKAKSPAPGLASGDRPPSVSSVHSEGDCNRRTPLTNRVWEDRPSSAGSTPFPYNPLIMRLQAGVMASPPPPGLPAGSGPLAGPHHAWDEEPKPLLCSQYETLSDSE

[2] = target: T1, Protein deacetylase HDAC6 (Homo sapiens, UniProt Q9UBN7); test: biochemical
T1 sequence (Q9UBN7 whole entry): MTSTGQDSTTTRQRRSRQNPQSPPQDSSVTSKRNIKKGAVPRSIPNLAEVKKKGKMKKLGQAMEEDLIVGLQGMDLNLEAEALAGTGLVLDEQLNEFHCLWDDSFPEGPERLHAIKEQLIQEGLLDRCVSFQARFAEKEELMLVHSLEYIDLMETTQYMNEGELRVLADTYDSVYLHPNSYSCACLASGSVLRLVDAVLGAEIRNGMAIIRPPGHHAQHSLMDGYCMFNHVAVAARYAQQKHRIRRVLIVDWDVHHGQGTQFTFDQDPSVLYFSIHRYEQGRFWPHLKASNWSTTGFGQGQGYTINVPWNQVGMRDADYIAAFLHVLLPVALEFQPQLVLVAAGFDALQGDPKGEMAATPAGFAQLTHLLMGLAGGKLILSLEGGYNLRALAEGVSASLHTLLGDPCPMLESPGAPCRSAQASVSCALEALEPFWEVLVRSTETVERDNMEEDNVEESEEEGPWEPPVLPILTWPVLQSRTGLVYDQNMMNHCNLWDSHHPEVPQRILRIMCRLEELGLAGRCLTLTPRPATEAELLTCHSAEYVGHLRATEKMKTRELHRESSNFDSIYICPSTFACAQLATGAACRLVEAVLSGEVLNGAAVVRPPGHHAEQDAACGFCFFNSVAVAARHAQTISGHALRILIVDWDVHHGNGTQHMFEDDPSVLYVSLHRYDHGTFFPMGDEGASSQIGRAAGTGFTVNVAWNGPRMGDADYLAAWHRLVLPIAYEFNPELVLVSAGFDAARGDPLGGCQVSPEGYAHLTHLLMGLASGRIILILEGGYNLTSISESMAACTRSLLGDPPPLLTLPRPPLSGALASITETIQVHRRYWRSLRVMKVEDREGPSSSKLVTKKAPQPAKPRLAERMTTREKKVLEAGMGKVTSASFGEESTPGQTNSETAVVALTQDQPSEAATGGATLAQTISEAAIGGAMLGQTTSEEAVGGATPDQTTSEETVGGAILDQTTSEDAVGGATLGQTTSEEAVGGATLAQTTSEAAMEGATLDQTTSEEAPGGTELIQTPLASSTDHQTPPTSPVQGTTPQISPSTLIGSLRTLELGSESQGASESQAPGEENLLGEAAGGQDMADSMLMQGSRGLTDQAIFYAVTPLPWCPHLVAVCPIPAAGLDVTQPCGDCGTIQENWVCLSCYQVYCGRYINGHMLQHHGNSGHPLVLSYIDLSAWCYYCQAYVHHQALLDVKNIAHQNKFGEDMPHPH
Description: Inhibition of recombinant full length human N-terminal GST-tagged HDAC6 expressed in baculovirus infected sf9 insect cells pretreated with compound followed by Fluor de Lys deacetylase substrate addition by fluorescence method

[3] = Stability in human liver S9 fraction assessed as parent compound remaining at 5 uM after 90 mins in presence of NADPH by LC-MS/MS analysis; type: ADME, subcellular; details: read-out: Stability
[4] = Stability in rat plasma assessed as parent compound remaining at 100 uM after 4 hrs by LC-MS/MS analysis; type: ADME, cell-free; details: read-out: Stability
[5] = Stability in human plasma assessed as parent compound remaining at 100 uM after 4 hrs by LC-MS/MS analysis; type: ADME, cell-free; details: read-out: Stability
[6] = Stability in rat liver S9 fraction assessed as parent compound remaining at 5 uM after 90 mins in presence of NADPH by LC-MS/MS analysis; type: ADME, subcellular; details: read-out: Stability
Mus musculus = test: In vivo inhibition of HDAC6 in C57BL/6 mouse assessed as increase in acetylated tubulin level in spleen cytosolic protein extract at 30 mg/kg, ip measured after 24 hrs by ELISA; type: functional, organism-based
697 = test: Cytotoxicity against human 697 cells after 48 hrs by CellTiter 96 aqueous one solution assay; type: cell-based; details: Homo sapiens, 697, 48 h
PBMC = test: Cytotoxicity against human PBMC cells after 72 hrs by CellTiter 96 aqueous one solution assay; type: cell-based
[7] = Toxicity in C57BL/6 mouse assessed as effect on body weight at 10 mg/kg, ip administered for 5 days/week for two cycles and measured every other day relative to control; type: organism-based; details: in vivo, 120 h
[8] = Toxicity in C57BL/6 mouse assessed as effect on body weight at 30 mg/kg, ip administered for 5 days/week for two cycles and measured every other day relative to control; type: organism-based; details: in vivo, 120 h
[9] = Toxicity in C57BL/6 mouse assessed as effect on body weight at 50 mg/kg, ip administered for 5 days/week for two cycles and measured every other day relative to control; type: organism-based; details: in vivo, 120 h
[10] = Toxicity in C57BL/6 mouse assessed as effect on platelet level at 10 mg/kg, ip administered for 5 days/week for two cycles and measured 60 mins post last dose by cell counter method relative to control; type: organism-based; details: in vivo, 1 h
[11] = Toxicity in C57BL/6 mouse assessed as effect on platelet level at 30 mg/kg, ip administered for 5 days/week for two cycles and measured 60 mins post last dose by cell counter method relative to control; type: organism-based; details: in vivo, 1 h
[12] = Toxicity in C57BL/6 mouse assessed as effect on platelet level at 50 mg/kg, ip administered for 5 days/week for two cycles and measured 60 mins post last dose by cell counter method relative to control; type: organism-based; details: in vivo, 1 h
[13] = Toxicity in C57BL/6 mouse assessed as effect on WBC level at 10 mg/kg, ip administered for 5 days/week for two cycles and measured 60 mins post last dose by beckman coulter counting method relative to control; type: organism-based; details: in vivo, 1 h
[14] = Toxicity in C57BL/6 mouse assessed as effect on WBC level at 30 mg/kg, ip administered for 5 days/week for two cycles and measured 60 mins post last dose by beckman coulter counting method relative to control; type: organism-based; details: in vivo, 1 h
[15] = Toxicity in C57BL/6 mouse assessed as effect on WBC level at 50 mg/kg, ip administered for 5 days/week for two cycles and measured 60 mins post last dose by beckman coulter counting method relative to control; type: organism-based; details: in vivo, 1 h
[16] = Toxicity in C57BL/6 mouse assessed as effect on postural changes up to 50 mg/kg, ip administered for 5 days/week for two cycles and measured daily starting from day 1; type: organism-based; details: in vivo, 120 h
[17] = Toxicity in C57BL/6 mouse assessed as inactivity/hyperactivity up to 50 mg/kg, ip administered for 5 days/week for two cycles and measured daily starting from day 1; type: organism-based; details: in vivo, 120 h
[18] = Toxicity in C57BL/6 mouse assessed as induction of kyphosis up to 50 mg/kg, ip administered for 5 days/week for two cycles and measured daily starting from day 1; type: organism-based; details: in vivo, 120 h
[19] = Toxicity in C57BL/6 mouse assessed as induction of piloerection up to 50 mg/kg, ip administered for 5 days/week for two cycles and measured daily starting from day 1; type: organism-based; details: in vivo, 120 h
[20] = Toxicity in C57BL/6 mouse assessed as effect on spasms up to 50 mg/kg, ip administered for 5 days/week for two cycles and measured daily starting from day 1; type: organism-based; details: in vivo, 120 h
[21] = Toxicity in C57BL/6 mouse assessed as effect on stool up to 50 mg/kg, ip administered for 5 days/week for two cycles and measured daily starting from day 1; type: organism-based; details: in vivo, 120 h
[22] = Toxicity in C57BL/6 mouse assessed as induction of diarrhea up to 50 mg/kg, ip administered for 5 days/week for two cycles and measured daily starting from day 1; type: organism-based; details: in vivo, 120 h
[23] = Toxicity in C57BL/6 mouse assessed as effect on grooming up to 50 mg/kg, ip administered for 5 days/week for two cycles; type: organism-based; details: in vivo, 120 h
[24] = Toxicity in C57BL/6 mouse assessed as effect on social behavior up to 50 mg/kg, ip administered for 5 days/week for two cycles; type: organism-based; details: in vivo, 120 h
[25] = Toxicity in C57BL/6 mouse assessed as induction of leukopenia up to 50 mg/kg, ip administered for 5 days/week for two cycles; type: organism-based; details: in vivo, 120 h
[26] = Toxicity in ip dosed C57BL/6 mouse administered for 5 days/week for two cycles; type: organism-based; details: in vivo
[27] = Total clearance in CD-1 mouse at […], iv measured within 6 hrs by LC-MS/MS analysis; type: ADME, organism-based; details: in vivo
[28] = Apparent volume of distribution at steady state in CD-1 mouse at […], iv measured within 6 hrs by LC-MS/MS analysis; type: ADME, organism-based; details: in vivo, read-out: Vdss(app)
[29] = Terminal half life in CD-1 mouse at […], iv measured within 6 hrs by LC-MS/MS analysis; type: ADME, organism-based; details: in vivo, read-out: beta t1/2 (converted)
[30] = Oral bioavailability in CD-1 mouse at 5.2 mg/kg measured within 6 hrs by LC-MS/MS analysis; type: ADME, organism-based; details: in vivo
[31] = Drug level in CD-1 mouse at […], iv measured after 5 mins by LC-MS/MS analysis; type: ADME, organism-based; details: in vivo, read-out: Drug uptake
[32] = Cmax in CD-1 mouse at 5.2 mg/kg, po measured within 6 hrs by LC-MS/MS analysis; type: ADME, organism-based; parameters: dose 5.2 mg/kg, route oral; details: in vivo
[33] = Tmax in CD-1 mouse at 5.2 mg/kg, po measured within 6 hrs by LC-MS/MS analysis; type: ADME, organism-based; details: in vivo
[34] = Total AUC in CD-1 mouse at 5.2 mg/kg, po measured within 6 hrs by LC-MS/MS analysis; type: ADME, organism-based; parameters: dose 5.2 mg/kg, route oral, time AUCmax; details: in vivo
[35] = Oral bioavailability in dog; type: ADME, organism-based, Canis lupus familiaris; details: in vivo
[36] = Oral bioavailability in rat; type: ADME, organism-based; details: in vivo
[37] = Drug level in C57BL/6 mouse plasma at 30 mg/kg, ip measured after 24 hrs; type: ADME, organism-based; details: in vivo, BLD = below limit of detection
[38] = Toxicity in C57BL/6 mouse assessed as effect on body temperature up to 50 mg/kg, ip administered for 5 days/week for two cycles and measured daily starting from day 1; type: organism-based; details: in vivo, 120 h

With CC(=O)Nc1ccc(C(=O)NO)cc1 the IC50 [1] was 1.67 µM and the IC50 [2] was 0.27 µM.

For O=C(NO)c1ccc(Cc2nnc[nH]2)cc1, the IC50 [1] was 2.9 µM and the IC50 [2] was 0.198 µM.

In the case of O=C(NO)c1ccc(Cn2nnnc2-c2cccs2)cc1, the remaining at […], 5 µM [3] is reported as 100%, the remaining at 4 h, 100 µM [4] is reported as 62% and the remaining at 4 h, 100 µM [5] is reported as 91%. For the same compound, the remaining at […], 5 µM [6] was 82%, the inhibition (Mus musculus) was “Active” and the IC50 697 was greater than 1 µM. For the same compound, the IC50 (PBMC) was greater than 1 µM, the Activity [7] was 2.2% and the Activity [8] was 3.5%. It also gave an Activity [9] of 1.4%, an Activity [10] of -5% and an Activity [11] of -7%. It also gave an Activity [12] of -1%, an Activity [13] of -4% and an Activity [14] of -11%. For the same compound, the Activity [15] was -15%, the Activity [16] was “Non-Toxic” and the Activity [17] was “Non-Toxic”. The Activity [18] was “Non-Toxic”, the Activity [19] was “Non-Toxic” and the Activity [20] was “Non-Toxic”. For the same compound, the Activity [21] was “Non-Toxic”, the Activity [22] was “Non-Toxic” and the Activity [23] was “Non-Toxic”. The Activity [24] was “Non-Toxic”, the Activity [25] was “Non-Toxic” and the MTD at 120 h [26] was greater than 50 mg/kg. The clearance at 6 h [27] was 172 mL/min/kg, the Vd at 6 h [28] was 4.8 L/kg and the half-life at 6 h [29] was 60 min. It also gave a bioavailability [30] of 19%, a concentration at 5 min [31] of 685 ng/mL and a Cmax [32] of 238 ng/mL. The Tmax [33] was 4.8 min, the AUC at 6 h [34] was 94 ng·h/mL and the bioavailability [35] was 16%. For the same compound, the bioavailability [36] was 25%, the Drug uptake [37] was “Bld” and the Activity [38] was “Non-Toxic”.

Compound Cc1nnc(-c2ccc(C(=O)NO)cc2)[nH]1 has an IC50 [1] of 3.56 µM and an IC50 [2] of 0.353 µM.

With O=C(NO)c1ccccc1 [BENZOHYDROXAMATE] the IC50 [1] was 71.6 µM and the IC50 [2] was 2.37 µM.
